Literature values as cited in publication PMC6816764 (Journal of the American Chemical Society, 2018).

Assays:
[1] = cited from earlier work
[2] = in nitrogen-sparged H2O; cited from earlier work

Molecule	1O2 production efficiency ([1]; ref 58a)	ΦΔ of standard ([1]; in CH3OH)	Φem of reference [2]
[Ru(tpy)(dppn)(py)]^2+	98%		
[Ru+2].c1ccc(-c2ccccn2)nc1.c1ccc(-c2ccccn2)nc1.c1ccc(-c2ccccn2)nc1 [[Ru(bpy)3]^2+]		0.81	0.042
